Experimental findings from ChEMBL document CHEMBL3991601, “The target landscape of clinical kinase drugs” (Science, 2017) are described below.

Counter-ions that a name gives are not always drawn. Calls of active or inactive are those of the source. Cut-off read from the data, not from the text of the source, for most assays here: actives have a measured Kd and inactives only a lower limit. A value given as a limit tells only on which side of the number the result lay.

In assay [1] the target is Tyrosine-protein kinase ABL1 (Homo sapiens, UniProt P00519).
The target of assay [2] is Citron Rho-interacting kinase (Homo sapiens, UniProt O14578).
Chain of Citron Rho-interacting kinase (O14578 whole entry): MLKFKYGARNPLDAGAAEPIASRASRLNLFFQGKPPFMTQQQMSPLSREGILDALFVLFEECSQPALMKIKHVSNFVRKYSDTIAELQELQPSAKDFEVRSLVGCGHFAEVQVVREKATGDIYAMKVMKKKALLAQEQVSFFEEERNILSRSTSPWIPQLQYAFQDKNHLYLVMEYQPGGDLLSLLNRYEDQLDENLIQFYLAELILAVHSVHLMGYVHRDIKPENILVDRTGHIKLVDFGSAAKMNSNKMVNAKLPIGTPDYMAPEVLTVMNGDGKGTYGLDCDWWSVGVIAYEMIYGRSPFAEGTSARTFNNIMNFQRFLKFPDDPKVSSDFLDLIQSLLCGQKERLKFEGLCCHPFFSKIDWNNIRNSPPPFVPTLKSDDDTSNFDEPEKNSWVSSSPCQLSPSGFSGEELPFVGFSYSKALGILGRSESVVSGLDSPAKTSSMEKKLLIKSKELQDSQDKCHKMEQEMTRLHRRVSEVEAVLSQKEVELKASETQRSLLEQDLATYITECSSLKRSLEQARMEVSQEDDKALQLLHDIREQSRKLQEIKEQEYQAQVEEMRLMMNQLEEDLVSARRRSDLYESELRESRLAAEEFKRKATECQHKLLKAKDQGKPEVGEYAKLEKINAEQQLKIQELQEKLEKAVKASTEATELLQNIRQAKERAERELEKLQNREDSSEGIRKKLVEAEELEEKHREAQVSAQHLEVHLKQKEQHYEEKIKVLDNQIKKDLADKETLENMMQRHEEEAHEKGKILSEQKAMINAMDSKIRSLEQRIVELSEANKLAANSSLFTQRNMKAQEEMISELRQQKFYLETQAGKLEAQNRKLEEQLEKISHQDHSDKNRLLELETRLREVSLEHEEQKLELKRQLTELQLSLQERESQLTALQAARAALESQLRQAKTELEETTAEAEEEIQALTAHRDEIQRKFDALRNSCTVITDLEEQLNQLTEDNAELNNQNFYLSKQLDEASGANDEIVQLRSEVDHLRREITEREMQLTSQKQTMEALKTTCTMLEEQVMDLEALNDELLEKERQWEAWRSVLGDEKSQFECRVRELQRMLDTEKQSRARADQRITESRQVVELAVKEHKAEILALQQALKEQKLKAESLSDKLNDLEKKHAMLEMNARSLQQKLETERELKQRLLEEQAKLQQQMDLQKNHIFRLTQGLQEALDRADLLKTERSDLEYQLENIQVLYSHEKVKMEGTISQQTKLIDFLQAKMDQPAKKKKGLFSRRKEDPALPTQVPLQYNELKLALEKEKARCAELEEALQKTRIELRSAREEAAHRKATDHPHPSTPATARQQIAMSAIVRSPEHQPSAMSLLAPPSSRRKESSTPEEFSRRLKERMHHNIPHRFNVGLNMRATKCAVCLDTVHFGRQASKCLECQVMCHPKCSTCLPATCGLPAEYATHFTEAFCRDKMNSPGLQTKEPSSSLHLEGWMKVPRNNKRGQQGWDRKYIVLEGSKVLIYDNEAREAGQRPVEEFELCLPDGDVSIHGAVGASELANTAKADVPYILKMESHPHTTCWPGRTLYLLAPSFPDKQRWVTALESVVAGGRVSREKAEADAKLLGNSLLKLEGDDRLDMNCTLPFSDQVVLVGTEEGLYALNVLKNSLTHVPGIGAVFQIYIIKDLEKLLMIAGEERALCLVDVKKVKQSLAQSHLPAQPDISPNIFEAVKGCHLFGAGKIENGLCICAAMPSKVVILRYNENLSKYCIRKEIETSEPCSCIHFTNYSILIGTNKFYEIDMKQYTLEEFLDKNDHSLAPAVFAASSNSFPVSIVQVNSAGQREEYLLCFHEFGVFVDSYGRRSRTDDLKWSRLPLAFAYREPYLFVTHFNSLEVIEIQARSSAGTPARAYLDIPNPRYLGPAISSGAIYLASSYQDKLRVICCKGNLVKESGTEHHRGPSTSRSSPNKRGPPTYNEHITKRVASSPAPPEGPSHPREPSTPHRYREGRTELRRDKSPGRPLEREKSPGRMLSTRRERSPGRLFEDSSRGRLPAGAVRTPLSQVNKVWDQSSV
For another assay, the target named is Insulin receptor (Homo sapiens, UniProt P06213).
Chain of Insulin receptor (P06213 28-758 limits assumed): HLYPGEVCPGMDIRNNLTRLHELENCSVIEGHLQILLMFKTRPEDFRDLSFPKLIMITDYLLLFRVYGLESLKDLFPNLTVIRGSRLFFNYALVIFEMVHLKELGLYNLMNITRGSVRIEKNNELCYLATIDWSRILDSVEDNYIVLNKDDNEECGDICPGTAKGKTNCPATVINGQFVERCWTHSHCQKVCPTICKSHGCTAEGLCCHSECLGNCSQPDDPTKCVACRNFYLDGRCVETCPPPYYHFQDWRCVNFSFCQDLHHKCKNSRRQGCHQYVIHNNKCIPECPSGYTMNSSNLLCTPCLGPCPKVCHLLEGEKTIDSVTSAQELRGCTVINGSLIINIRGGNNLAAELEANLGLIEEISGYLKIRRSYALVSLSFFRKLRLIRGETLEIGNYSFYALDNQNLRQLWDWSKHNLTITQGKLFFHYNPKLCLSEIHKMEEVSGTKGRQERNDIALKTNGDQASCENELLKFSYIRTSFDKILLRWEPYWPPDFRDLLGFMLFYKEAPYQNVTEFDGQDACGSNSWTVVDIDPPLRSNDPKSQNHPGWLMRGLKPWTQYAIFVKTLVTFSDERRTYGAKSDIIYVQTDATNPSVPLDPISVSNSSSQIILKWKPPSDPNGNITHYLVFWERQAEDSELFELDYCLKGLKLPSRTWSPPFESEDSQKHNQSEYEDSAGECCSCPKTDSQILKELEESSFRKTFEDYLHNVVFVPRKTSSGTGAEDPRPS
Chain of Insulin receptor (P06213 763-1382 limits assumed): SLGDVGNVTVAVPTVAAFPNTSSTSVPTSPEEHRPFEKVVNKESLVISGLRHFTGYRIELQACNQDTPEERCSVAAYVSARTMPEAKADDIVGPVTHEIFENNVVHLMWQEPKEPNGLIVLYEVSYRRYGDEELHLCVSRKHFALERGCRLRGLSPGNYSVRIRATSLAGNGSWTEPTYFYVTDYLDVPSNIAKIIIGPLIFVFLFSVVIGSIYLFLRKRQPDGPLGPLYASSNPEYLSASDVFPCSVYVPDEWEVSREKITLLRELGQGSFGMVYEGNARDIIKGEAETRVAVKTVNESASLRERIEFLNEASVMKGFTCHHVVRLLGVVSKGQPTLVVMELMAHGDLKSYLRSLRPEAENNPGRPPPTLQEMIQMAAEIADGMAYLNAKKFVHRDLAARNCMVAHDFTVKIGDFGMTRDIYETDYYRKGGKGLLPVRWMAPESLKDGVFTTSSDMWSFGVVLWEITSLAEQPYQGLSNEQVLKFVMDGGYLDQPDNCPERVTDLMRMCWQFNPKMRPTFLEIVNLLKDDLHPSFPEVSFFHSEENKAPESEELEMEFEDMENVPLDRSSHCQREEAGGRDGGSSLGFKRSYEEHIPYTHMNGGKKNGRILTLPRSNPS
In assay [3] the target is Interleukin-1 receptor-associated kinase 1 (Homo sapiens, UniProt P51617).
Assay [4] deals with T1, Serine/threonine-protein kinase LATS1 (Homo sapiens, UniProt O95835).
T1 sequence (O95835 whole entry): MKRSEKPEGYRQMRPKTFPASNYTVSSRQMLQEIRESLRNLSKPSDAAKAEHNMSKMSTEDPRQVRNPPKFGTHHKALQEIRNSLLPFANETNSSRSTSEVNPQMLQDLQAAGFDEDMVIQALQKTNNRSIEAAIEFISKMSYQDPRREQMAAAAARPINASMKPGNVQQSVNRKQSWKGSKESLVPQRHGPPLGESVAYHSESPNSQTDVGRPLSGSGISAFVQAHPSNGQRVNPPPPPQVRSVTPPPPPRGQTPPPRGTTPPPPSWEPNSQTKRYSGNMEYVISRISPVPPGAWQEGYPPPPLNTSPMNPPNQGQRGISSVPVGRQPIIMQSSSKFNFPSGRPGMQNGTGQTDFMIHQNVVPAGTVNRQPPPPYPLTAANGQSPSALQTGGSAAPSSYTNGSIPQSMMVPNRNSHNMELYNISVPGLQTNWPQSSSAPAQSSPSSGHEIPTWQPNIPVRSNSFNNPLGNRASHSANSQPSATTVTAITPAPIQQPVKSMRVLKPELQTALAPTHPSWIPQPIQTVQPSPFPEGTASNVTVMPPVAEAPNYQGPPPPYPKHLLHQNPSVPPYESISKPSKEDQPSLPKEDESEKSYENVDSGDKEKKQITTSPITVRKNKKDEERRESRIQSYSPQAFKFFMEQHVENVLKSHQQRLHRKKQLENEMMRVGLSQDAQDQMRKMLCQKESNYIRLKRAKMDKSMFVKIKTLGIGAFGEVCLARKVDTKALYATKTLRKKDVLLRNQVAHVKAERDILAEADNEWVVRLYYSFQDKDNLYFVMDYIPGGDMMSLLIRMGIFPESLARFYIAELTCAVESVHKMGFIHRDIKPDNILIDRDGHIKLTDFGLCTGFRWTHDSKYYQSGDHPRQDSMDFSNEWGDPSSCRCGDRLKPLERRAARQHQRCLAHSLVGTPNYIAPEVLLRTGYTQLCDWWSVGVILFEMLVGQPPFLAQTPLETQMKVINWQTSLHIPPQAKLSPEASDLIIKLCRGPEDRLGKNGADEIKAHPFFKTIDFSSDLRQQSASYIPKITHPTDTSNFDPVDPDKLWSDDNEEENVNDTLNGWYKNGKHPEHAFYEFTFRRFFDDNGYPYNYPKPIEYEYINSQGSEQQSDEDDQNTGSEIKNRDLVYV

The target in assay [5] is Mitogen-activated protein kinase 7 (Homo sapiens, UniProt Q13164).
Chain of Mitogen-activated protein kinase 7 (Q13164 whole entry): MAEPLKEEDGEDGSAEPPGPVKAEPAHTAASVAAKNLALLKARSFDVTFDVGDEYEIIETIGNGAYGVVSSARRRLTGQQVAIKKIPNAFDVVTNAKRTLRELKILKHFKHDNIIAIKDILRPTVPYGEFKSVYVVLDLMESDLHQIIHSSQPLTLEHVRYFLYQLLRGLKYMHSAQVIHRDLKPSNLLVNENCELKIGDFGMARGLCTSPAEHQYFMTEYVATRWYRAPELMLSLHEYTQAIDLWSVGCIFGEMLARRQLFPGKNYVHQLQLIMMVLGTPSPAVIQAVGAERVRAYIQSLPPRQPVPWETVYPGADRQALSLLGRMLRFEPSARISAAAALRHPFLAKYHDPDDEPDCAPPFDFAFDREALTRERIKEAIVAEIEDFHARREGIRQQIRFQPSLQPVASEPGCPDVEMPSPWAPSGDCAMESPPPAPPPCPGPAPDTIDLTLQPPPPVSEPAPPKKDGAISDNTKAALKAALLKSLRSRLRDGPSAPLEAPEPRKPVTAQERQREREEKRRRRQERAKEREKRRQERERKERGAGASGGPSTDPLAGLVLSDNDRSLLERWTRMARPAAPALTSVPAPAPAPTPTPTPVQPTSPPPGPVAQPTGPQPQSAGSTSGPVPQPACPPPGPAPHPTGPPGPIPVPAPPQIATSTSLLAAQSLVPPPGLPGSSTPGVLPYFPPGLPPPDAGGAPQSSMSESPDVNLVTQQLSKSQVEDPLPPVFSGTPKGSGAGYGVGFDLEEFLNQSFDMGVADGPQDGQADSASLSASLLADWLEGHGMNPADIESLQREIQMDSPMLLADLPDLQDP
Assay [6] concerns the target Mitogen-activated protein kinase 8 (Homo sapiens, UniProt P45983).
The target in the next assay is T2, Pyridoxal kinase (Homo sapiens, UniProt O00764).
T2 sequence (O00764 whole entry): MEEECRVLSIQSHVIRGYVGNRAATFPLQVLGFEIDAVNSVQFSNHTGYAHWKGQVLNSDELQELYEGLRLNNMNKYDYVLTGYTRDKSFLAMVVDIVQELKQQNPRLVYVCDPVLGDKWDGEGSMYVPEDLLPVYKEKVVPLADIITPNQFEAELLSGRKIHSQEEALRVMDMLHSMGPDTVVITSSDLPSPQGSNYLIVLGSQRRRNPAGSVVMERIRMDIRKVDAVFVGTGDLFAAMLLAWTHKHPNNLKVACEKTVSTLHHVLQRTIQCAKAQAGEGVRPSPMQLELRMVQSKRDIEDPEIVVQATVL

Assay [7] deals with T3, Serine/threonine-protein kinase PLK4 (Homo sapiens, UniProt O00444).
T3 sequence (O00444 whole entry): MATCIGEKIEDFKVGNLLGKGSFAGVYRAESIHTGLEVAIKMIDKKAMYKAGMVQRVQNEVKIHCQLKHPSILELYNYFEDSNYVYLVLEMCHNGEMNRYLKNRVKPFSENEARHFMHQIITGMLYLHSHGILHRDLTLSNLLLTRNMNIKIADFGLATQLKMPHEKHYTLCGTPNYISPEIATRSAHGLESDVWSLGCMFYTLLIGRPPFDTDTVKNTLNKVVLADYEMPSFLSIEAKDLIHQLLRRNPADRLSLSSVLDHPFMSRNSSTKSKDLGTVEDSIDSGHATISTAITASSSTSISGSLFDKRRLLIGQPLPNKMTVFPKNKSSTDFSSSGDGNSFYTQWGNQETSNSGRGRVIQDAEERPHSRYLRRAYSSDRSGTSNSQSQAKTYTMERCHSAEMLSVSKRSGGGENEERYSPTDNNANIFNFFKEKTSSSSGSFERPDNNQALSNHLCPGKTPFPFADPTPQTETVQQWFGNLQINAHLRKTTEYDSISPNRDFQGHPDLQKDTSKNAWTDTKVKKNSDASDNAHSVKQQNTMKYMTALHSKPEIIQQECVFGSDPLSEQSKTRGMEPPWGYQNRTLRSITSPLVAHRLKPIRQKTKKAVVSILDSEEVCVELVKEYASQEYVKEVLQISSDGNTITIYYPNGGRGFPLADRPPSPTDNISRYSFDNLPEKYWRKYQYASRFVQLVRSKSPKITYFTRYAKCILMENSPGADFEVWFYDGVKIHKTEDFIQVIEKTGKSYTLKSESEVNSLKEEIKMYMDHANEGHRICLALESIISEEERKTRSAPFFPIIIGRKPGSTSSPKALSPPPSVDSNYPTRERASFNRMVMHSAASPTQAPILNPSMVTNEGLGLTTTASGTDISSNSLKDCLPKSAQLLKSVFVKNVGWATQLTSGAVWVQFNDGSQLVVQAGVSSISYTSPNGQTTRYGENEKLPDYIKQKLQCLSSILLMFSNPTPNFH

Assay [8] deals with GTP-binding nuclear protein Ran (Homo sapiens, UniProt P62826).
Note: in the data inactive means no Kd found up to 30 µM.

Chain of Mitogen-activated protein kinase 8 (P45983 whole entry): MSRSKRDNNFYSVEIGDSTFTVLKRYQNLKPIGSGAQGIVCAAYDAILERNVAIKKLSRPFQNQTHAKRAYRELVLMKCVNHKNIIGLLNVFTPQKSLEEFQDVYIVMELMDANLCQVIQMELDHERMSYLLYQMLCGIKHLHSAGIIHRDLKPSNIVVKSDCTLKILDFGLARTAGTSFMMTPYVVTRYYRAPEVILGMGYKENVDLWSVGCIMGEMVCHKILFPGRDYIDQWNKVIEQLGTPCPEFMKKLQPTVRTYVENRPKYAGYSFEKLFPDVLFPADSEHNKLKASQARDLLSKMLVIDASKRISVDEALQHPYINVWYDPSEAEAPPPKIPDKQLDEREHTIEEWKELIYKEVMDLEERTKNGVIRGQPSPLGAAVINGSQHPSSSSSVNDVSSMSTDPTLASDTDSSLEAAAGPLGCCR

For orientation: Kd means a measure of binding affinity in units of concentration. Turning to `CCn1c(C(=O)N(C2CC2)C2CC2)cc2c3c(ncn3C)c(Nc3cc(C)n(C)n3)nc21` [BMS-911543], the Kd (in assay [1]; in assay [2]; on Insulin receptor; in assay [3]; in assay [4]; in [5]) was > 30 µM (inactive) each time. For the same molecule, the Kd (in assay [6]; at Pyridoxal kinase; in [7]; in assay [8]) was > 30 µM (inactive) each time.
Regarding `COc1c(OCCCN2CCOCC2)ccc2c1N=C(NC(=O)c1cnc(N)nc1)N1CCN=C21` [COPANLISIB], the Kd (in assay [1]; in assay [2]; at Insulin receptor; in [3]; in assay [4]; in assay [5]) was > 30 µM (inactive) in each case. The Kd (in [6]; on Pyridoxal kinase; in [7]; in [8]) was > 30 µM (inactive) in each case.
Take `COCC(=O)NC/C=C/c1ccc2ncnc(Nc3ccc(Oc4ccc(C)nc4)c(C)c3)c2c1` [CP-724714]: the Kd (in [1]; in [2]; on Insulin receptor; in assay [3]; in [4]; in assay [5]) was > 30 µM (inactive) each time. In addition, the Kd (in assay [6]; on Pyridoxal kinase; in assay [7]; in assay [8]) was > 30 µM (inactive) throughout.
With `CCS(=O)(=O)N1CCN(c2ccc(Nc3ncc(C(N)=O)c(NC4CC4)n3)cc2)CC1` [Cerdulatinib Hydrochloride], the Kd was > 30 µM (inactive) in assay [1]; > 30 µM (inactive) in assay [2]; > 30 µM (inactive) on Insulin receptor; > 30 µM (inactive) in assay [3]; 0.261 µM (active) in assay [4]; > 30 µM (inactive) in assay [5]. Moreover, the Kd in assay [6] was 0.356 µM (active); at Pyridoxal kinase, > 30 µM (inactive); in assay [7] it was > 30 µM (inactive); in assay [8] it was > 30 µM (inactive).
For `Cc1nc2cc(-n3ncc(C(=O)c4cc5ccccc5[nH]4)c3N)ccc2[nH]1` [FGFR INHIBITOR DEBIO 1347], the Kd (in assay [1]; in assay [2]; at Insulin receptor; in assay [3]; in assay [4]; in assay [5]) was > 30 µM (inactive) throughout. For the same molecule, the Kd in assay [6] is > 30 µM (inactive); on Pyridoxal kinase, 2.11 µM (active); in assay [7], > 30 µM (inactive); in assay [8], > 30 µM (inactive).
Consider `O=C(Nc1nc2cccc(-c3ccc(CN4CCS(=O)(=O)CC4)cc3)n2n1)C1CC1` [FILGOTINIB], for which the Kd was > 30 µM (inactive) in [1]; > 30 µM (inactive) in assay [2]; > 30 µM (inactive) at Insulin receptor; 4.71 µM (active) in assay [3]; > 30 µM (inactive) in [4]; > 30 µM (inactive) in assay [5]. Further, the Kd (in [6]; at Pyridoxal kinase; in assay [7]; in assay [8]) was > 30 µM (inactive) each time.
`Cc1cccc(-c2nn3c(c2-c2ccnc4ccc(C(N)=O)cc24)CCC3)n1` [GALUNISERTIB]: the Kd (in assay [1]; in [2]; on Insulin receptor; in assay [3]; in assay [4]; in [5]) was > 30 µM (inactive) throughout. The Kd (in assay [6]; at Pyridoxal kinase; in assay [7]; in assay [8]) was > 30 µM (inactive) in each case.
`COc1ccc(S(=O)(=O)N(C(C)=O)c2ccccc2/C=C/c2cc[n+]([O-])cc2)cc1` [HMN-214]: the Kd (in [1]; in assay [2]; on Insulin receptor; in assay [3]; in assay [4]; in assay [5]) was > 30 µM (inactive) in each case. Besides, the Kd (in assay [6]; at Pyridoxal kinase; in assay [7]; in assay [8]) was > 30 µM (inactive) each time.
As to `O=C(Nc1cc(C(F)(F)F)cc(C(F)(F)F)c1)c1cc(Cl)ccc1O` [IMD-0354], the Kd (in assay [1]; in assay [2]; at Insulin receptor; in assay [3]; in assay [4]; in assay [5]) was > 30 µM (inactive) each time. Further, the Kd (in assay [6]; at Pyridoxal kinase; in assay [7]; in [8]) was > 30 µM (inactive) in each case.
Regarding `CNC(=O)c1cccc2cc(Oc3ccnc4cc(OCC5(N)CC5)c(OC)cc34)ccc12` [LUCITANIB], the Kd (in assay [1]; in assay [2]; on Insulin receptor; in [3]; in assay [4]; in assay [5]) was > 30 µM (inactive) in each case. Besides, the Kd in assay [6] is > 30 µM (inactive); on Pyridoxal kinase, 16.4 µM (active); in [7], > 30 µM (inactive); in assay [8], > 30 µM (inactive).
As to `NC1(c2ccc(-c3nc4ccn5c(=O)[nH]nc5c4cc3-c3ccccc3)cc2)CCC1` [MK-2206], the Kd (in assay [1]; in assay [2]; on Insulin receptor; in assay [3]; in assay [4]; in [5]) was > 30 µM (inactive) each time. Further, the Kd (in [6]; at Pyridoxal kinase; in assay [7]; in assay [8]) was > 30 µM (inactive) in each case.
